Test results taken from ChEMBL document CHEMBL5550210, “Discovery of Novel α,β-Unsaturated Amide Derivatives as Candidate Antifungals to Overcome Fungal Resistance” (J Med Chem, 2024).
Values after ≈ are worked out from the molar mass of the structure shown. Active and inactive are the calls of the source. The rule behind the calls is not given here.

What was measured:
Candida albicans [1] = test: Antifungal activity against Candida albicans CPCC400616 assessed as inhibition of fungal growth by CLSI protocol based microdilution method; format: functional
Candida albicans [2] = test: Antifungal activity against Candida albicans SC5314 assessed as inhibition of fungal growth by CLSI protocol based microdilution method; format: functional
Candida parapsilosis = test: Antifungal activity against Candida parapsilosis ATCC 22019 assessed as inhibition of fungal growth by CLSI protocol based microdilution method; format: functional; details: Lodderomyces parapsilosis
Nakaseomyces glabratus = test: Antifungal activity against Candida glabrata assessed as inhibition of fungal growth by CLSI protocol based microdilution method; format: functional
Pichia kudriavzevii = test: Antifungal activity against Candida krusei AS 2.1045 assessed as inhibition of fungal growth by CLSI protocol based microdilution method; format: functional
[3] = Metabolic stability in mouse liver microsomes assessed as half life; format: ADME, Microsome
[4] = Half life in mouse plasma measured at 180 mins; format: ADME, cell-free
Candida albicans [5] = test: Antifungal activity against fluconazole-resistant Candida albicans CaR assessed as inhibition of fungal growth by CLSI based microdilution method; format: functional
Candida albicans [6] = test: Antifungal activity against fluconazole-resistant Candida albicans 17 assessed as inhibition of fungal growth by CLSI based microdilution method; format: functional
Candida albicans [7] = test: Antifungal activity against fluconazole-resistant Candida albicans 632 assessed as inhibition of fungal growth by CLSI based microdilution method; format: functional
Candida albicans [8] = test: Antifungal activity against fluconazole-resistant Candida albicans 904 assessed as inhibition of fungal growth by CLSI based microdilution method; format: functional
Candida albicans [9] = test: Antifungal activity against fluconazole-resistant Candida albicans 901 assessed as inhibition of fungal growth by CLSI based microdilution method; format: functional
Candida albicans [10] = test: Antifungal activity against Candida albicans assessed as inhibition of fungal growth by CLSI protocol based microdilution method; format: functional
[11] = target: Voltage-gated inwardly rectifying potassium channel KCNH2 (Homo sapiens, UniProt Q12809); test: Inhibition of hERG1; format: toxicity
Sequence of Voltage-gated inwardly rectifying potassium channel KCNH2 (Q12809 whole entry): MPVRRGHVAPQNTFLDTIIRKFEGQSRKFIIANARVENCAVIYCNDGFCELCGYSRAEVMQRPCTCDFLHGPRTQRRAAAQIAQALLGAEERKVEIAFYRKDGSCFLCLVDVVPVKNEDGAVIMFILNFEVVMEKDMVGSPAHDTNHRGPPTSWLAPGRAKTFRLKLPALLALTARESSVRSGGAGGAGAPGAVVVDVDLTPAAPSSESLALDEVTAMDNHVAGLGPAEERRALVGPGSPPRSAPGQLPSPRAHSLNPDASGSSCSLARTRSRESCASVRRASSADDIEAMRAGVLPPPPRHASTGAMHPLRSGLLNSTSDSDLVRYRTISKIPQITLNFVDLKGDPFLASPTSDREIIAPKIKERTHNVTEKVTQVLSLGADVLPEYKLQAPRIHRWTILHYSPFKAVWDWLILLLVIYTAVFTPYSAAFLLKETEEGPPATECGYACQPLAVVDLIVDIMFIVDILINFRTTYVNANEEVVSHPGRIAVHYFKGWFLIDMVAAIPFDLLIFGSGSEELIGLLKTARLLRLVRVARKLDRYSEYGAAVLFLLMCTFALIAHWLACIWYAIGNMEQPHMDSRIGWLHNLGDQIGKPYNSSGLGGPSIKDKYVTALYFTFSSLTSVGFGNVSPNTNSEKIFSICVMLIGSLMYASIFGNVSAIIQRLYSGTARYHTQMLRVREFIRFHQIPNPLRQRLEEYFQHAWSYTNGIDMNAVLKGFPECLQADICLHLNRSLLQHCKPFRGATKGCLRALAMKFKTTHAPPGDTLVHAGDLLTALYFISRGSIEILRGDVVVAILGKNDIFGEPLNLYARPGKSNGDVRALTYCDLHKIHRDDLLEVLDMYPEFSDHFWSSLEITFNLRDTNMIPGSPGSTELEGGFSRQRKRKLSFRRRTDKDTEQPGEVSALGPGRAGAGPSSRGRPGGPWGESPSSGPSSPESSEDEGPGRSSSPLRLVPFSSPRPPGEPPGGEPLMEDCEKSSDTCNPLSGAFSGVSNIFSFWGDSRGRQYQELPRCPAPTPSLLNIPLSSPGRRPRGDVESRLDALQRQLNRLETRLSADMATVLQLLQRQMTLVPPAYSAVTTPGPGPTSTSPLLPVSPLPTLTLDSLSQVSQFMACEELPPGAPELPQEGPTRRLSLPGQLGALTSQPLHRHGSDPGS

[12] = target: T1, Voltage-gated inwardly rectifying potassium channel KCNH6 (Homo sapiens, UniProt Q9H252); test: Inhibition of hERG2; format: toxicity
T1 sequence (Q9H252 whole entry): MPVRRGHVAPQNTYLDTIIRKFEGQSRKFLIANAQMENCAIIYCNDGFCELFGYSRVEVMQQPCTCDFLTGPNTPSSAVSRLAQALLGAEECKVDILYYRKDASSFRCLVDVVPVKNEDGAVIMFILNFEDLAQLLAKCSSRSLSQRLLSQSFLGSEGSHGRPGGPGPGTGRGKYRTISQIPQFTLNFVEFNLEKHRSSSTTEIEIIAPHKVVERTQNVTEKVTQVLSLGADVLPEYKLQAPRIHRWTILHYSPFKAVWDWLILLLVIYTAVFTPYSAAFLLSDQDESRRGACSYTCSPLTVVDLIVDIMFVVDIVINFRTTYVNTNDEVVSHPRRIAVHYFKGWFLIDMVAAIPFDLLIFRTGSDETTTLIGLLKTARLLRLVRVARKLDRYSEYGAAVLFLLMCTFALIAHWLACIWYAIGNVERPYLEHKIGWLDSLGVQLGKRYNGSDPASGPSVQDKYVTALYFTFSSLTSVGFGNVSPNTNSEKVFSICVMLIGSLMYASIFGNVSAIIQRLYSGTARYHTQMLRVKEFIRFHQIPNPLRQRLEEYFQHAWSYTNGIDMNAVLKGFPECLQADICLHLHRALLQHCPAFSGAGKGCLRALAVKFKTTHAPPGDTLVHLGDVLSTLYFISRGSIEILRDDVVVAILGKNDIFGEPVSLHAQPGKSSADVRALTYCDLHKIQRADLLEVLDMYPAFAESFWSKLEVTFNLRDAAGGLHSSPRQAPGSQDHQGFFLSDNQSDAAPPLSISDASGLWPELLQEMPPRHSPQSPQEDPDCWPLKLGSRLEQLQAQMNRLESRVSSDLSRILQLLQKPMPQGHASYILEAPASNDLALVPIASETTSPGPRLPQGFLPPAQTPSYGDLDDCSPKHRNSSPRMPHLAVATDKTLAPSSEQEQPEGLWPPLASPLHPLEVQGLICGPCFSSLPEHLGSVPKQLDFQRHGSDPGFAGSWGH

[13] = Acute toxicity in rat assessed as Low-observed adverse effect level at po administration; format: organism-based; details: in vivo
J774.A1 = test: Cytotoxicity against mouse J774.A1 cells assessed as inhibition of cell growth incubated for 72 hrs by MTT assay; format: functional, cell-based; details: J774.A1, 72 h
[14] = target: T2, Lanosterol 14-alpha demethylase (Candida albicans (strain SC5314 / ATCC MYA-2876) (Yeast), UniProt P10613); test: Inhibition of CYP51 in Candida albicans SC5314 assessed as reduction in ergosterol content at 0.031 ug/ml incubated for 24 hrs by GC-MS analysis relative to control; details: at 0.031 µg/mL
T2 sequence (P10613 whole entry): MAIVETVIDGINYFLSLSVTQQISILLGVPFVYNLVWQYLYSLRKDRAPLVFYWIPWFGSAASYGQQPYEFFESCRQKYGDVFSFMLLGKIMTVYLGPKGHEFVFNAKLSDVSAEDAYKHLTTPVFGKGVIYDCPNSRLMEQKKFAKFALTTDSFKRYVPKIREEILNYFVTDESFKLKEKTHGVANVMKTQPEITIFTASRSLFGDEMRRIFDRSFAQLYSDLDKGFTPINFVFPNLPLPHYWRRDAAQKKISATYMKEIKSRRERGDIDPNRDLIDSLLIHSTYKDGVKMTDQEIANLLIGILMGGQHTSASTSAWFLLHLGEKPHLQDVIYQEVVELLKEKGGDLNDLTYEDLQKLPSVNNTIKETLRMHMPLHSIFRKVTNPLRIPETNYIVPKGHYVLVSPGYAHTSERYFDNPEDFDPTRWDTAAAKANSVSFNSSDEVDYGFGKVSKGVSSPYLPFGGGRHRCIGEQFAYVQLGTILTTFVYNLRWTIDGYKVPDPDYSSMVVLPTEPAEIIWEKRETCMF

[15] = target: T2, Lanosterol 14-alpha demethylase; test: Inhibition of CYP51 in Candida albicans SC5314 assessed as increase in eburicol level at 0.031 ug/ml incubated for 24 hrs by GC-MS analysis relative to control; details: at 0.031 µg/mL
Candida albicans [16] = test: Antifungal activity against Candida albicans CPCC400616 assessed as inhibition of hyphae formation at 2 ug/ml incubated for 4 hrs by inverted microscopic analysis; format: functional, organism-based; details: dose 2.0 µg/ml
Candida albicans [17] = test: Antifungal activity against Candida albicans CPCC400616 assessed as inhibition of fungal biofilm formation incubated for 24 hrs by XTT assay; format: functional, organism-based
Candida albicans [18] = test: Antifungal activity against Candida albicans CPCC400616 assessed as downregulation of TEC1 gene expression at 2 ug/ml incubated for 12 hrs by RT-PCR analysis; format: functional, organism-based; details: dose 2.0 µg/ml
Candida albicans [19] = test: Antifungal activity against Candida albicans CPCC400616 assessed as downregulation of EFG1 gene expression at 2 ug/ml incubated for 12 hrs by RT-PCR analysis; format: functional, organism-based; details: dose 2.0 µg/ml
Candida albicans [20] = test: Antifungal activity against Candida albicans CPCC400616 assessed as downregulation of CPH1 gene expression at 2 ug/ml incubated for 12 hrs by RT-PCR analysis; format: functional, organism-based; details: dose 2.0 µg/ml
Candida albicans [21] = test: Antifungal activity against Candida albicans CPCC400616 assessed as downregulation of ALS3 gene expression at 2 ug/ml incubated for 12 hrs by RT-PCR analysis; format: functional, organism-based; details: dose 2.0 µg/ml
Candida albicans [22] = test: Antifungal activity against fluconazole-resistant Candida albicans 904 assessed as downregulation of TEC1 gene expression at 16 ug/ml incubated for 12 hrs by RT-PCR analysis; format: functional, organism-based; details: dose 16.0 µg/ml
Candida albicans [23] = test: Antifungal activity against fluconazole-resistant Candida albicans 904 assessed as downregulation of CPH1 gene expression at 16 ug/ml incubated for 12 hrs by RT-PCR analysis; format: functional, organism-based; details: dose 16.0 µg/ml
Candida albicans [24] = test: Antifungal activity against fluconazole-resistant Candida albicans 904 assessed as downregulation of ALS3 gene expression at 16 ug/ml incubated for 12 hrs by RT-PCR analysis; format: functional, organism-based; details: dose 16.0 µg/ml
Candida albicans [25] = test: Antifungal activity against fluconazole-resistant Candida albicans 904 assessed as increase in intracellular ROS production at 32 ug/ml incubated for 4 hrs by DCFH-DA probe based fluorescence spectrophotometric analysis; format: functional, organism-based; details: dose 32.0 µg/ml
Candida albicans [26] = test: Antifungal activity against fluconazole-resistant Candida albicans 904 assessed as increase in intracellular fluorescence intensity at 32 ug/ml incubated for 4 hrs by fluorescence inverted microscopic analysis; format: functional, organism-based; details: dose 32.0 µg/ml

Compound	MIC (Candida albicans [1]) [µg/mL]	MIC (Candida albicans [2]) [µg/mL]	MIC (Candida parapsilosis) [µg/mL]	MIC (Nakaseomyces glabratus) [µg/mL]	MIC (Pichia kudriavzevii) [µg/mL]	half-life [3] [h]	half-life [4] [h]	MIC (Candida albicans [5]) [µg/mL]	MIC (Candida albicans [6]) [µg/mL]	MIC (Candida albicans [7]) [µg/mL]	MIC (Candida albicans [8]) [µg/mL]	MIC (Candida albicans [9]) [µg/mL]	MIC (Candida albicans [10]) [µg/mL]	inhibition (INH) [11]	inhibition (INH) [12]	LOAEL [13] [mg/kg]	IC50 (J774.A1) [µM]	inhibition (INH) [14] [%]	inhibition (INH) [15]	Activity (Candida albicans [16])	also measured
O=C(/C=C/c1ccc(COC(Cn2ccnc2)c2ccc(Cl)cc2Cl)cc1)Nc1ccc(Cl)cc1Cl (stereo not given)	0.06 (≈ 0.107 µM)	0.03 (≈ 0.0534 µM)	0.06 (≈ 0.107 µM)	1 (≈ 1.78 µM)	0.5 (≈ 0.891 µM)	0.493	> 6	1 (≈ 1.78 µM)	0.25 (≈ 0.445 µM)	0.25 (≈ 0.445 µM)	1 (≈ 1.78 µM)	1 (≈ 1.78 µM)	1 (≈ 1.78 µM)	Active	Active	0.452	24.6	1.25	Active	Active	Activity (Candida albicans [17]): Dose-Dependent Effect; Activity (Candida albicans [18]): Active; Activity (Candida albicans [19]): Active; Activity (Candida albicans [20]): Active; Activity (Candida albicans [21]): Active; Activity (Candida albicans [22]): Active; Activity (Candida albicans [23]): Active; Activity (Candida albicans [24]): Active; Activity (Candida albicans [25]): Active; Activity (Candida albicans [26]): Active
CCCCNC(=O)/C=C/c1ccc(COC(Cn2ccnc2)c2ccc(Cl)cc2Cl)cc1 (stereo not given)	0.03 (≈ 0.0635 µM)	0.015 (≈ 0.0318 µM)	0.06 (≈ 0.127 µM)	4 (≈ 8.47 µM)	2 (≈ 4.23 µM)	1	> 6	1 (≈ 2.12 µM)	4 (≈ 8.47 µM)	0.25 (≈ 0.529 µM)	1 (≈ 2.12 µM)	1 (≈ 2.12 µM)	2 (≈ 4.23 µM)	Not Active	Active	1.138	29.4	0.67	Active	Active	Activity (Candida albicans [17]): Dose-Dependent Effect; Activity (Candida albicans [18]): Active; Activity (Candida albicans [19]): Active; Activity (Candida albicans [20]): Active; Activity (Candida albicans [21]): Active; Activity (Candida albicans [22]): Active; Activity (Candida albicans [23]): Active; Activity (Candida albicans [24]): Active; Activity (Candida albicans [25]): Active; Activity (Candida albicans [26]): Active
